According to patent US8013153B2, “Substituted pyrimidine kinase inhibitors” (Janssen Pharmaceutica, N.V., priority 2006, dated 2011):
Like-named read-outs stand apart in the source and are kept apart here.

Columns and labels:
CDK1:Cyclin-B = target: T1, CDK1:Cyclin-B (Homo sapiens, UniProt P06493); assay: CDK1 Screening Assay; format: biochemical
T1 construct: purchased New England Biolabs, Beverly, Mass; 6020; host or cells: insect cells
Experimental: (§1) A kinase reaction mixture was prepared containing 50 mM Tris-HCl pH=8, 10 mM MgCl2, 0.1 mM Na3PO4, 1 mM DTT, 10 μM ATP, 0.025 μM biotinylated histone-H1 peptide substrate and 0.2 μCuries per well ^33P-γ-ATP (2000-3000 Ci/mmol). 70 μL of the kinase reaction mixture was dispensed into the well of a streptavidin coated FlashPlate™ (Cat. # SMP103, NEN, Boston, Mass.). Then 1 μL of test compound stock in 100% DMSO was added to the wells resulting in a final concentration of 1% DMSO in the reaction with a 100 μL final reaction volume.
(§2) The CDK1:Cyclin-B protein was diluted in 50 mM Tris-HCl pH=8.0, 0.1% BSA at a concentration of 1 ng per μL and 30 μL (30 ng enzyme per test well) was added to each well to initiate the reaction. The reaction was incubated for one hour at 30° C. At the end of the 1 hour incubation, the reaction was terminated by aspirating the mixture from the plate and washing the wells twice with PBS containing 100 mM EDTA. The histone-H1 biotinylated peptide substrate became immobilized on the Flashplate™ and the incorporation of ^33P-γ-ATP was measured by reading the plate on a scintillation counter. Inhibition of the enzymatic activity of CDK1 was measured by observing a reduced amount of ^33P-γ-ATP incorporated into the immobilized peptide.
The CDK1 used was isolated from insect cells expressing both the human CDK1 catalytic subunit and its positive regulatory subunit cyclin B (New England Biolabs, Beverly, Mass., Cat. #6020).

murine Aurora-A = target: T2, murine Aurora-A (Mus musculus, UniProt P97477); assay: Aurora-A Screening Assay; format: biochemical
T2 construct: replaced with the full length protein encoding the murine Aurora-A; made in house; host or cells: sf9 insect cells
T2 sequence (P97477 1-395): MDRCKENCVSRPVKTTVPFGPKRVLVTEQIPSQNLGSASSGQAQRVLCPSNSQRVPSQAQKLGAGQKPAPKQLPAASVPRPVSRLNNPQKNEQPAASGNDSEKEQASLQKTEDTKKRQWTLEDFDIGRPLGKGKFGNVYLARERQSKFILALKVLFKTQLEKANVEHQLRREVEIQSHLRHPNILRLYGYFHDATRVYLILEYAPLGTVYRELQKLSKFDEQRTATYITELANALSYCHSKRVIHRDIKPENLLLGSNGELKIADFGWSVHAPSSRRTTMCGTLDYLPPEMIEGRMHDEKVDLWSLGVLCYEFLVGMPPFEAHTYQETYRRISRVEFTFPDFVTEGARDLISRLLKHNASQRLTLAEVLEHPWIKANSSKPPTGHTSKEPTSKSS
Experimental: as §1, §2
The Aurora-A kinase assay was carried out using the CDK kinase assay procedure except that the enzyme was replaced with the full length protein encoding the murine Aurora-A (Accession #GB BC014711) expressed and purified from sf9 insect cells.

HER2 cytoplasmic domain = target: T3, HER2 cytoplasmic domain (Homo sapiens, UniProt P04626); assay: HER2 Kinase Screening Assay; format: biochemical; settings: > means no observed 50% inhibition at the indicated test concentration; ~ means approximately 50% inhibition at that concentration
T3 construct: polyhistidine (N)
Experimental: as §1, §2
The HER2 kinase assay was carried out using the CDK kinase assay procedure except that the enzyme was replaced with a HER2 construct containing a polyhistidine tag at the N-terminus followed by 24 additional amino acids and the HER2 cytoplasmic domain beginning at amino acid 676 (Accession #M11730) to the end.

[1] = target: T4, rat VEGF-R2 kinase domain (Rattus norvegicus, UniProt O08775); assay: VEGF-R2 Screening Assay; format: biochemical
T4 construct: amino acids 786-1343 of the rat VEGF-R2 kinase domain; polyhistidine (N)

[2] = tested on: HeLa cervical adenocarcinoma; assay: Inhibition of in vitro cell proliferation (HeLa); format: cell-based, human; settings: Homo sapiens, 14C-thymidine incorporation;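 further: cells exposed to compound for 24 h, then labelled 24 h with methyl 14C-thymidine, with uptake into DNA counted by scintillation against DMSO-only control wells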
HCT-116 colon carcinoma = assay: Inhibition of in vitro cell proliferation (HCT116); format: cell-based, human; settings: Homo sapiens, HCT-116, 14C-thymidine incorporation;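 further: cells exposed to compound for 24 h, then 14C-thymidine added for a further 24 h and its uptake into DNA counted by scintillation, DMSO-only wells as control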
A375 malignant melanoma = assay: Inhibition of in vitro cell proliferation (A375); format: cell-based, human; settings: Homo sapiens, A-375, 14C-thymidine incorporation;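 further: cells plated for 24 h, given compound for 24 h, then labelled with 14C-thymidine for another 24 h, with DMSO-only wells as control and counts read by scintillation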
[3] = > means no observed 50% inhibition at the indicated test concentration, ~ means approximately 50% inhibition at that concentration, read-out: IC50 VEGF-R2

T4 sequence (O08775 786-1343): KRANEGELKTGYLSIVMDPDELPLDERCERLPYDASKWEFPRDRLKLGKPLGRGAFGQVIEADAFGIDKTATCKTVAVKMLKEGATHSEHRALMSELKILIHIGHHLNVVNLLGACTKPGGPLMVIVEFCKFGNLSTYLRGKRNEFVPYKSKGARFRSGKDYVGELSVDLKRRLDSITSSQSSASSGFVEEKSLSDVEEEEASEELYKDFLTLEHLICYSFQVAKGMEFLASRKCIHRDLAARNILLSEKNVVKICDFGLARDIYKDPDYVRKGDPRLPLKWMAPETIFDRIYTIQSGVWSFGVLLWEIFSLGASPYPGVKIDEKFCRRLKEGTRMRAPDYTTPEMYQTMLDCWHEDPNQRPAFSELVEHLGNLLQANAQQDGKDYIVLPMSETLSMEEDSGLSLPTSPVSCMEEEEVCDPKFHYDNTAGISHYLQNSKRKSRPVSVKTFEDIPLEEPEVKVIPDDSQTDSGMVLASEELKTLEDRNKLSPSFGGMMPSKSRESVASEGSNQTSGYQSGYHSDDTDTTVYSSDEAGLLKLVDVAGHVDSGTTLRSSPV
T1 sequence (P06493 whole entry): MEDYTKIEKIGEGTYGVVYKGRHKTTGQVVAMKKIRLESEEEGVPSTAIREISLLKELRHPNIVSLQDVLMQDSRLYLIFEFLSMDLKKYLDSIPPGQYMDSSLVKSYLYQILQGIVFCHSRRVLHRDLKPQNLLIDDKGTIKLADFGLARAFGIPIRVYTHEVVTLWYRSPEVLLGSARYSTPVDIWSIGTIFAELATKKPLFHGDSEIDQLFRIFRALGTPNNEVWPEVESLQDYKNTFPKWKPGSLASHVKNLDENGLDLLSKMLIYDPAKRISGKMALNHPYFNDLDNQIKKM
T1 sequence (P14635 whole entry partner): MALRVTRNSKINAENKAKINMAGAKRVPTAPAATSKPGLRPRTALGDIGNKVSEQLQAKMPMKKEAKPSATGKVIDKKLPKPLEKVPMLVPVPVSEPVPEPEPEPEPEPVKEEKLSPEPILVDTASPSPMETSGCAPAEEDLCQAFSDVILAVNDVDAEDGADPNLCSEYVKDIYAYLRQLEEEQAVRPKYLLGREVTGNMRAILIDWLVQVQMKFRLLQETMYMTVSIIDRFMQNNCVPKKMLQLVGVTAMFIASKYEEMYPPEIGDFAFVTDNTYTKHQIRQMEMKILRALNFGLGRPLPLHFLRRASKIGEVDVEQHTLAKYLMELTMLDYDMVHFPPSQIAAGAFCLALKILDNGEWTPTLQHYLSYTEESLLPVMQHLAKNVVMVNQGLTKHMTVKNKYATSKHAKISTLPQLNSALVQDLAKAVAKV
T3 sequence (P04626 676-1255 limits assumed): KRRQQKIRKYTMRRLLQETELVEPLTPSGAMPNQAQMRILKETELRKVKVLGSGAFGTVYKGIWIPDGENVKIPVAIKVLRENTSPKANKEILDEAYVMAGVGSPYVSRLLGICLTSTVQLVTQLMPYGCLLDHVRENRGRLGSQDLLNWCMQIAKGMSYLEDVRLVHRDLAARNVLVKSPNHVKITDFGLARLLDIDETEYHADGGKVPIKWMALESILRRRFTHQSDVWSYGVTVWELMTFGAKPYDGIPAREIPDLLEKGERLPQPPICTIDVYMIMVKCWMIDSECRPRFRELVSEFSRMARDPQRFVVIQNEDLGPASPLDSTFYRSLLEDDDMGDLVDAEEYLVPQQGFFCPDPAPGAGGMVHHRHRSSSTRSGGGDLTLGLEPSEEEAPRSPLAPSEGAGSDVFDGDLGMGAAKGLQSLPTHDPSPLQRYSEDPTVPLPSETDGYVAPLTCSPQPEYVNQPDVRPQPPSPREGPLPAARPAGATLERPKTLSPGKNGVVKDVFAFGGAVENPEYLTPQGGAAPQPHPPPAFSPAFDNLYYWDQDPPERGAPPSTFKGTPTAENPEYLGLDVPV

IC50 (CDK1:Cyclin-B)	IC50 (murine Aurora-A)	IC50 (HER2 cytoplasmic domain)	IC50 [1, 3]	IC50 [2]	IC50 (HCT-116 colon carcinoma)	IC50 (A375 malignant melanoma)	Compound	IC50 ([1]; IC50 VEGF-R2)
28 µM	> 100 µM	> 10 µM	0.0304 µM	4.24 µM	4.54 µM	2.59 µM	CON=Cc1c(N)ncnc1Oc1ccc2c(c1)cc(C)n2C(=O)NCCCO [Cpd 40, 5-[6-amino-5-(methoxyimino-methyl)-pyrimidin-4-yloxy]-2-methyl-indole-1-carboxylic acid (3-hydroxy-propyl)-amide]	
> 100 µM	> 100 µM	> 100 µM	0.041 µM				CCNC(=O)Nc1ccc(Oc2ncnc(N)c2C=NOCCOC)cc1Cl [Cpd 104, 1-(4-{6-amino-5-[(2-methoxy-ethoxyimino)-methyl]-pyrimidin-4-yloxy}-2-chloro-phenyl)-3-ethyl-urea]	
> 100 µM	> 100 µM	> 100 µM	> 100 µM				CO/N=C/c1c(N)ncnc1Oc1ccc2[nH]cc(CCNC(C)=O)c2c1 [Cpd 113, N-[2-{5-[{6-amino-5-[(E)-(methoxyimino)methyl]-4-pyrimidinyl}oxy]-1H-indol-3-yl}ethyl]-acetamide]	
> 100 µM	> 10 µM	> 100 µM					CCNC(=O)Cc1ccc(Oc2ncnc(N)c2C=NOC)cc1 [Cpd 101, 2-{4-[6-amino-5-(methoxyimino-methyl)-pyrimidin-4-yloxy]-phenyl}-N-ethyl-acetamide]	
> 100 µM	> 100 µM	> 1 µM	> 100 µM				CON=Cc1c(N)ncnc1Oc1ccc(F)c(Cl)c1 [Cpd 109, 4-amino-6-(3-chloro-4-fluorophenoxy)-5-pyrimidinecarboxaldehyde O-methyloxime]	
> 100 µM	> 100 µM	> 100 µM	> 100 µM				CCOC(=O)c1c(C)[nH]c2ccc(Oc3ncnc(N)c3/C=N/OC)cc12 [Cpd 107, 5-[{6-amino-5-[(E)-(methoxyimino)methyl]-4-pyrimidinyl}oxy]-2-methyl-1H-indole-3-carboxylic acid ethyl ester]	
> 100 µM	> 100 µM	> 100 µM					CNC(=O)c1ccc(Oc2ncnc(N)c2C=NOC)cc1 [Cpd 98, 4-[6-amino-5-(methoxyimino-methyl)-pyrimidin-4-yloxy]-N-methyl-benzamide]	
> 100 µM	> 10 µM	> 10 µM	3.96 µM				CON=Cc1c(N)ncnc1Oc1ccc2c(c1)OCO2 [Cpd 108, 4-amino-6-(1,3-benzodioxol-5-yloxy)-5-pyrimidinecarboxaldehyde O-methyloxime]	
> 100 µM	> 100 µM	> 10 µM	~1 µM				CNC(=O)n1c(C)cc2c(F)c(Oc3ncnc(N)c3C=NOC)ccc21 [Cpd 43, 5-[6-amino-5-(methoxyimino-methyl)-pyrimidin-4-yloxy]-4-fluoro-2-methyl-indole-1-carboxylic acid methylamide]	

The remaining lines, values behind:

Compound	IC50 (CDK1:Cyclin-B)	IC50 (murine Aurora-A)	IC50 (HER2 cytoplasmic domain)	IC50 [1, 3]	IC50 [2]	IC50 (HCT-116 colon carcinoma)	IC50 (A375 malignant melanoma)	IC50 ([1]; IC50 VEGF-R2)
Cc1cc2c(F)c(Oc3ncnc(N)c3C=NOCCCN(C)C)ccc2[nH]1 [Cpd 17, 4-amino-6-(4-fluoro-2-methyl-1H-indol-5-yloxy)-pyrimidine-5-carbaldehyde O-(3-dimethylamino-propyl)-oxime]	> 100 µM	33.8 µM	~10 µM					
CON=Cc1c(N)ncnc1Oc1ccc(CC(=O)Nc2ccc(C)cc2)cc1 [Cpd 99, 2-{4-[6-amino-5-(methoxyimino-methyl)-pyrimidin-4-yloxy]-phenyl}-N-p-tolyl-acetamide]	> 100 µM	> 100 µM	0.217 µM	0.008 µM	> 100 µM	> 100 µM	> 100 µM	
C=CCON=Cc1c(N)ncnc1Oc1ccc2[nH]c(C)cc2c1F [Cpd 31, 4-amino-6-(4-fluoro-2-methyl-1H-indol-5-yloxy)-pyrimidine-5-carbaldehyde O-allyl-oxime]	> 100 µM	> 100 µM	> 100 µM		0.042 µM	0.04 µM	0.021 µM	
CON=Cc1c(N)ncnc1Oc1ccc(NC(=O)Nc2nccs2)c(Cl)c1 [Cpd 91, 1-{4-[6-amino-5-(methoxyimino-methyl)-pyrimidin-4-yloxy]-2-chloro-phenyl}-3-thiazol-2-yl-urea]	> 100 µM	> 10 µM	> 1 µM	0.0034 µM	3.24 µM	3.04 µM	0.929 µM	
CO/N=C/c1c(N)ncnc1Oc1ccc2[nH]c(C)cc2c1 [Cpd 2, 4-amino-6-(2-methyl-1H-indol-5-yloxy)-pyrimidine-5-carbaldehyde O-methyl-oxime]	> 100 µM	~100 µM	> 1 µM		0.389 µM	0.386 µM	0.356 µM	
CON=Cc1c(N)ncnc1Oc1cc(OC)cc(OC)c1 [Cpd 106, 4-amino-6-(3,5-dimethoxyphenoxy)-5-pyrimidinecarboxaldehyde O-methyloxime]	> 100 µM	> 100 µM	> 10 µM	> 10 µM				
CON=Cc1c(N)ncnc1Oc1ccc(OC(=O)Nc2cccc(Cl)c2)cc1 [Cpd 105, (3-chloro-phenyl)-carbamic acid 4-[6-amino-5-(methoxyimino-methyl)-pyrimidin-4-yloxy]-phenyl ester]	> 100 µM	> 100 µM	> 100 µM	> 100 µM				
CON=Cc1c(N)ncnc1Oc1ccc(CC(=O)Nc2cccc(F)c2)cc1 [Cpd 100, 2-{4-[6-amino-5-(methoxyimino-methyl)-pyrimidin-4-yloxy]-phenyl}-N-(3-fluoro-phenyl)-acetamide]	> 100 µM	> 100 µM	2.8 µM					
CCNC(=O)Nc1ccc(Oc2ncnc(N)c2C=NOCCN2CCOCC2)cc1Cl [Cpd 103, 1-(4-{6-amino-5-[(2-morpholin-4-yl-ethoxyimino)-methyl]-pyrimidin-4-yloxy}-2-chloro-phenyl)-3-ethyl-urea]	> 100 µM	> 100 µM	> 100 µM	0.093 µM				
CNC(=O)Cc1ccc(Oc2ncnc(N)c2C=NOC)cc1 [Cpd 96, 2-{4-[6-amino-5-(methoxyimino-methyl)-pyrimidin-4-yloxy]-phenyl}-N-methyl-acetamide]	> 100 µM	> 10 µM	> 100 µM					19.7 µM
CON=Cc1c(N)ncnc1OCc1ccc2ccccc2c1 [Cpd 115, 4-amino-6-(2-naphthalenylmethoxy)-5-pyrimidinecarboxaldehyde O-methyloxime]				> 10 µM				
CCNC(=O)Oc1ccc(Oc2ncnc(N)c2C=NOC)cc1 [Cpd 102, ethyl-carbamic acid 4-[6-amino-5-(methoxyimino-methyl)-pyrimidin-4-yloxy]-phenyl ester]	> 100 µM	> 10 µM	> 100 µM					
COCCCON=Cc1c(N)ncnc1Oc1ccc2[nH]c(C)cc2c1F [Cpd 33, 4-amino-6-(4-fluoro-2-methyl-1H-indol-5-yloxy)-pyrimidine-5-carbaldehyde O-(3-methoxy-propyl)-oxime]	> 100 µM	> 10 µM	3.99 µM		0.346 µM	0.438 µM	0.3 µM	
CON=Cc1c(N)ncnc1OCc1cccc(F)c1 [Cpd 112, 4-amino-6-[(3-fluorophenyl)methoxy]-5-pyrimidinecarboxaldehyde O-methyloxime]			> 10 µM					
